From ChEMBL document CHEMBL1130773, “Identification of a non peptidic RANTES antagonist” (Bioorg Med Chem Lett, 1998)
The source made the active and inactive calls. The rule behind the calls is not given here.

test system: not listed separately; experiment: Inhibition of [125I]RANTES binding to THP-1 cell membranes rich in C-C chemokine receptor types 1; parameters: species or system Homo sapiens; details: not given

| Compound | IC50 [µM] |
| --- | --- |
| O=C1NCN(c2ccccc2)C12CCN(CCCN1c3ccccc3Sc3ccc(Cl)cc31)CC2 | 7 |
| COC(=O)c1ccc2c(c1)N(CCCN1CCC3(CC1)C(=O)NCN3c1ccccc1)c1ccccc1S2 | 4 |
| CN(C)C(=O)c1ccc2c(c1)N(CCCN1CCC3(CC1)C(=O)NCN3c1ccccc1)c1ccccc1S2 | 5 |
| N#Cc1ccc2c(c1)N(CCCN1CCC3(CC1)C(=O)NCN3c1ccccc1)c1ccccc1S2 | 6 |
| CN(C)S(=O)(=O)c1ccc2c(c1)N(CCCN1CCC(C3CCCCC3)CC1)c1ccccc1S2 | 2 |
| CC(=O)c1ccc2c(c1)N(CCCN1CCC3(CC1)C(=O)NCN3c1ccccc1)c1ccccc1S2 | 3 |
| CN(C)S(=O)(=O)c1ccc2c(c1)N(CCCN1CCC(c3ccccc3)CC1)c1ccccc1S2 | 4.5 |
| CN(C)S(=O)(=O)c1ccc2c(c1)N(CCCN1CCC(Cc3ccccc3)CC1)c1ccccc1S2 | 7 |
| CN(CCCc1ccccc1)CCCN1c2ccccc2Sc2ccc(S(=O)(=O)N(C)C)cc21 | 4 |
| CN(C)S(=O)(=O)c1ccc2c(c1)N(CCCN1CCC3(CC1)C(=O)NCN3c1ccccc1)c1ccccc1S2 | 3 |
| CN(C)S(=O)(=O)c1ccc2c(c1)N(CCCCN1CCC3(CC1)C(=O)NCN3c1ccccc1)c1ccccc1S2 | 10 |
| O=C1NCN(c2ccccc2)C12CCN(CCCN1c3ccccc3Sc3ccccc31)CC2 | 12 |

test system: THP-1; experiment: Compound was tested in vitro for inhibition of [125I]RANTES binding to THP-1 cell membranes rich in C-C chemokine receptor type 1; details: dose or concentration not given here

| Compound | inhibition [%] |
| --- | --- |
| CN(C)S(=O)(=O)c1ccc2c(c1)N(CCN1CCC3(CC1)C(=O)NCN3c1ccccc1)c1ccccc1S2 | < 20 |
| CN(C)S(=O)(=O)c1ccc2c(c1)N(CCCN1CCCCC1)c1ccccc1S2 | 38 |

target: C-C chemokine receptor type 2 (Homo sapiens) (UniProt P41597); experiment: Tested for inhibition of [125I]-MCP-1 receptor binding to THP-1 cell membranes at concentrations up to 30 uM; NI means no inhibition; details: not given
Sequence (P41597 whole entry, looked up): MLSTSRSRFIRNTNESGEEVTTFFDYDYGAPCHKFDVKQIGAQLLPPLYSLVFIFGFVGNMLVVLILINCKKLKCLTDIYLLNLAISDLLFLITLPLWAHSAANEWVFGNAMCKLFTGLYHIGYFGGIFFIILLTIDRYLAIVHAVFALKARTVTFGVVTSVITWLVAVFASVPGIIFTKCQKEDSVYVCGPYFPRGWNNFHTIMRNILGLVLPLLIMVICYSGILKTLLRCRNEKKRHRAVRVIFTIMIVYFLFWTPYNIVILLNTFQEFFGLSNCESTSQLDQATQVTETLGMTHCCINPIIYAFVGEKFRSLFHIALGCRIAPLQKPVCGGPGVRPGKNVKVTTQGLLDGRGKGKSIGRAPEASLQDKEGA

| Compound | inhibition |
| --- | --- |
| CN(C)S(=O)(=O)c1ccc2c(c1)N(CCCN1CCC3(CC1)C(=O)NCN3c1ccccc1)c1ccccc1S2 | inactive |
